Results from patent US20250066363A1, “Bicyclic DGK Inhibitors” (Incyte Corporation, priority 2023, published 2025).

Legend:
DGKζ = DGKζ (Homo sapiens (Human), UniProt Q13574); test: In vitro DGKζ inhibition assay (ADP-Glo); format: biochemical; conditions: second column of Table A, head printed DGKα, presumably DGKζ; His-tagged human recombinant DGKζ 0.4 nM, 30 μM ATP, 20 μM DLG
Description: (§1) The DGKα and DGKζ biochemical reactions were performed using His-tagged human recombinant enzymes (Signal Chem, DGKα, #D21-10BH; DGKζ, #D30-1OH)) and DLG (Dilauroyl-sn-glycerol) lipid substrate (Signal Chem, #D430-59). ADP-Glo assay was performed using ADP-Glo™ kinase Assay kit (Promega, #V9104). The reactions were carried out in assay buffer containing 40 mM Tris, pH 7.5, 0.1% CHAPS, 0.1% Prionex, 40 mM NaCl, 5 mM MgCl2, 1 mM CaCl2, and 1 mM DTT. DGKα reactions contained 0.1 nM DGKα, 50 μM ATP, and 20 μM DLG. And DGKζ reactions contained 0.4 nM DGKζ, 30 μM ATP, and 20 μM DLG.
(§2) For compound inhibition studies, 40 nL test compound in DMSO was added to wells of white polystyrene plates in 384-well (Greiner, #784075) or 1536-well format (Greiner, #782075). Compounds were added with top concentration of 2 mM with 11 point, 3-fold dilution series. Enzyme solution (contains 2× DGK enzyme concentration in 1× assay buffer) was added to the plate in 2 μL/well volume, followed by 2 μL/well of substrate solution (contains 2× concentration of ATP and DLG substrate in 1× assay buffer). Plates were then centrifuged for 1 min at 1200 RPM and sealed or lidded. For 4 μL reaction volume, test compounds were therefore diluted 100× to final top concentration of 20 μM. After 90 minute incubation, reactions were quenched by addition of 2 μL/well Promega ADP-Glo Reagent, followed by centrifugation and lidding. After 60 min incubation, 2 μL/well Promega Kinase Detection Reagent was added, plates centrifuged, and incubated for 30 min. Plates were then read using Luminescence method on BMG PHERAstar FSX plate reader. Percent inhibition was calculated and IC50s were determined using 4-parameter fit in Genedata Screener. Labcyte Echo acoustic dispenser was used for compound addition, and Formulatrix Tempest liquid handler was used for all reagent dispenses.

DGKα = DGKα (Homo sapiens (Human), UniProt P23743); test: In vitro DGKα inhibition assay (ADP-Glo); format: biochemical; conditions: first column of Table A; His-tagged human recombinant DGKα 0.1 nM, 50 μM ATP, 20 μM DLG
Description: as §1, §2

Chain of DGKζ (Q13574 whole entry): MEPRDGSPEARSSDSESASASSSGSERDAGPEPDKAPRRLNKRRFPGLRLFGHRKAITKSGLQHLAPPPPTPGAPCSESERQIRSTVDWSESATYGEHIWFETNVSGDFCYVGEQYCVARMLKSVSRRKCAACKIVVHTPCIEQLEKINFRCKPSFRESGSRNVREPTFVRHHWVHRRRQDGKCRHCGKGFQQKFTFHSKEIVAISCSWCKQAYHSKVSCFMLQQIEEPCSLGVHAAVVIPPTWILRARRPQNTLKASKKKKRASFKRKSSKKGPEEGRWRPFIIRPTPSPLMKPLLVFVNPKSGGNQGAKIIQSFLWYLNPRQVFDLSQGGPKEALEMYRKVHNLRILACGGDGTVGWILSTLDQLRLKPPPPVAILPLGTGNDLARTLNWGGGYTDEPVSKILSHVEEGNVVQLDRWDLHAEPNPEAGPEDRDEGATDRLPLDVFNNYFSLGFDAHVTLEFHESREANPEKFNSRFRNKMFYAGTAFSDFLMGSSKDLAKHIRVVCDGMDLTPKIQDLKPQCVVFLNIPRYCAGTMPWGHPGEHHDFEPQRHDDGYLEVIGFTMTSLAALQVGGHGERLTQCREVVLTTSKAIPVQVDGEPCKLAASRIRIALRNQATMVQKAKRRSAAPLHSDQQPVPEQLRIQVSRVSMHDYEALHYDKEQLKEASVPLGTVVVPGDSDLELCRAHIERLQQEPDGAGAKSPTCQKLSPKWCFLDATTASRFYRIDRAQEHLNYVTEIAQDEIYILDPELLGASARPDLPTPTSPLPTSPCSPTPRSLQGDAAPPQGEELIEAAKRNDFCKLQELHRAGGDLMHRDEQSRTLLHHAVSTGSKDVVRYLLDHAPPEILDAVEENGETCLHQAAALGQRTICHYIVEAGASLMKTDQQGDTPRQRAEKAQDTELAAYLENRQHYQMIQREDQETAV
Chain of DGKα (P23743 whole entry): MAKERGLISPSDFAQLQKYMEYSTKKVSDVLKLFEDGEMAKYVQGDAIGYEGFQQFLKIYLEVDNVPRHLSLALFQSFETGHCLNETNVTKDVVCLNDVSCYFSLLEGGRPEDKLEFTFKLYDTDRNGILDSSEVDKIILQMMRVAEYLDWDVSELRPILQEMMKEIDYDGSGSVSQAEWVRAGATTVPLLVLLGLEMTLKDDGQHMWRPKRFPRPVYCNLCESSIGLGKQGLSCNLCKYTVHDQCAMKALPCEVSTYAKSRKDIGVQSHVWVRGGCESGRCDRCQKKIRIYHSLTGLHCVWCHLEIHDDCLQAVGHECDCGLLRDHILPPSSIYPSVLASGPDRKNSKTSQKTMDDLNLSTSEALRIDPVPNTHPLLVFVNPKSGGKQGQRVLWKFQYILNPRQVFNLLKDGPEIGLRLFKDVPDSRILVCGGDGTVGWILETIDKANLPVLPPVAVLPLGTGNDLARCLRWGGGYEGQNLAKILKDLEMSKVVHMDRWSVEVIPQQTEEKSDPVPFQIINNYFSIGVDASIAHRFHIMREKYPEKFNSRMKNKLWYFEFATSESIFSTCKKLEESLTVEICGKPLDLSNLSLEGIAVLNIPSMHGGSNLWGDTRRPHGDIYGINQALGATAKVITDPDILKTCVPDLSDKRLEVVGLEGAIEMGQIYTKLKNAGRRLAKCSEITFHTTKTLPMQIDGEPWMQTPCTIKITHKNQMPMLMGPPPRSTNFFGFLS

Row | SMILES | IC50 (DGKζ) [nM] | IC50 (DGKα) [nM]
1 | CC[C@@H]1CN(c2nc(=O)n(C)c3c2nc(C)n3C[C@@H]2CCCO2)[C@@H](C)CN1C(c1ccc(C(F)(F)F)cc1)C1CC(F)(F)C1 (stereo partly drawn) [Example 38, 6-((2S,5R)-4-((3,3-Difluorocyclobutyl)(4-(trifluoromethyl)phenyl)methyl)-5-ethyl-2-methylpiperazin-1-yl)-3,8-dimethyl-9-(((S)-tetrahydrofuran-2-yl)methyl)-3,9-dihydro-2H-purin-2-one] | ≤ 10 | ≤ 10
2 | CC[C@@H]1CN(c2nc(=O)n(C)c3c2nnn3C[C@H]2CCCO2)[C@@H](C)CN1[C@H](CC)c1ccc(Cl)cc1 [Example 27, 7-((2S,5R)-4-((R)-1-(4-chlorophenyl)propyl)-5-ethyl-2-methylpiperazin-1-yl)-4-methyl-3-(((R)-tetrahydrofuran-2-yl)methyl)-3,4-dihydro-5H-[1,2,3]triazolo[4,5-d]pyrimidin-5-one] | ≤ 100 | ≤ 10
3 | Cc1nc2c(N3C[C@@H](C)N(C(c4ccc(Cl)c(F)c4)C4CC(F)(F)C4)C[C@@H]3C)nc(=O)n(C)c2n1C[C@@H]1CCCO1 (stereo partly drawn) [Example 39, 6-((2S,5R)-4-((4-Chloro-3-fluorophenyl)(3,3-difluorocyclobutyl)methyl)-2,5-dimethylpiperazin-1-yl)-3,8-dimethyl-9-(((S)-tetrahydrofuran-2-yl)methyl)-3,9-dihydro-2H-purin-2-one] | ≤ 10 | ≤ 10
4 | CC[C@@H]1CN(c2nc(=O)[nH]c3c2nc(C)n3C[C@@H]2CCCO2)[C@@H](C)CN1C(c1ccc(F)cc1)c1ccc(F)cc1 [Example 4, 6-((2S,5R)-4-(Bis(4-fluorophenyl)methyl)-5-ethyl-2-methylpiperazin-1-yl)-8-methyl-9-(((S)-tetrahydrofuran-2-yl)methyl)-3,9-dihydro-2H-purin-2-one] | ≤ 10 | ≤ 10
5 | CCC(c1ccc(C(F)(F)F)cc1)N1C[C@H](C)N(c2nc(=O)n(C)c3c2ncn3CC2(O)CCCC2)C[C@H]1CC (single isomer, unassigned) [Example 73] | ≤ 10 | ≤ 10
6 | CC[C@@H]1CN(c2nc(=O)n(C)c3c2nnn3CC2(O)CCC2)[C@@H](C)CN1C(C)c1ccc(C(F)(F)F)cc1 (single isomer, unassigned) [Example 64] | ≤ 10 | ≤ 10
7 | Cc1nc2c(N3C[C@@H](C)N([C@@H](c4ccc(C(F)(F)F)cc4F)C(C)C)C[C@@H]3C)nc(=O)n(C)c2n1C[C@@H]1CCCO1 [Example 52, 6-((2S,5R)-4-((R)-1-(2-Fluoro-4-(trifluoromethyl)phenyl)-2-methylpropyl)-2,5-dimethylpiperazin-1-yl)-3,8-dimethyl-9-(((S)-tetrahydrofuran-2-yl)methyl)-3,9-dihydro-2H-purin-2-one] | ≤ 10 | ≤ 10
8 | CC[C@@H]1CN(c2nc(=O)n(C)c3c2nc(C)n3C[C@@H]2CCCO2)[C@@H](C)CN1[C@@H](c1ccc(C(F)(F)F)cc1)C(C)C [Example 60, 6-((2S,5R)-5-ethyl-2-methyl-4-((R)-2-methyl-1-(4-(trifluoromethyl)phenyl)propyl)piperazin-1-yl)-3,8-dimethyl-9-(((S)-tetrahydrofuran-2-yl)methyl)-3,9-dihydro-2H-purin-2-one] | ≤ 10 | ≤ 10
9 | CC(C)CC(c1ccc(Cl)cc1)N1C[C@H](C)N(c2nc(=O)n(C)c3c2ncn3C[C@H]2OCC[C@@H]2O)C[C@H]1C (single isomer, unassigned) [Example 19] | ≤ 10 | ≤ 10
10 | Cc1nc2c(N3C[C@@H](C)N([C@@H](c4ccc(C(F)(F)F)cc4)C(C)C)C[C@@H]3C)nc(=O)n(C)c2n1C[C@@H]1CCCO1 [Example 54, 6-((2S,5R)-2,5-dimethyl-4-((R)-2-methyl-1-(4-(trifluoromethyl)phenyl)propyl)piperazin-1-yl)-3,8-dimethyl-9-(((S)-tetrahydrofuran-2-yl)methyl)-3,9-dihydro-2H-purin-2-one] | ≤ 10 | ≤ 10
11 | CC[C@@H]1CN(c2nc(=O)n(C)c3c2nnn3C[C@H]2CCCO2)[C@@H](C)CN1C(c1ccc(C(F)(F)F)cc1)C1CC(F)(F)C1 (stereo partly drawn) [Example 44, 7-((2S,5R)-4-((3,3-Difluorocyclobutyl)(4-(trifluoromethyl)phenyl)methyl)-5-ethyl-2-methylpiperazin-1-yl)-4-methyl-3-(((R)-tetrahydrofuran-2-yl)methyl)-3,4-dihydro-5H-[1,2,3]triazolo[4,5-d]pyrimidin-5-one] | ≤ 10 | ≤ 10
12 | C[C@@H]1CN(c2nc(=O)[nH]c3c2ncn3C[C@@H]2CCCO2)[C@@H](C)CN1C(c1ccc(F)cc1)c1ccc(F)cc1 [Example 9, 6-((2S,5R)-4-(Bis(4-fluorophenyl)methyl)-2,5-dimethylpiperazin-1-yl)-9-(((S)-tetrahydrofuran-2-yl)methyl)-3,9-dihydro-2H-purin-2-one] | ≤ 100 | ≤ 100
13 | CC[C@@H]1CN(c2nc(=O)n(C)c3c2nnn3C[C@H]2CCCO2)[C@@H](C)CN1[C@@H](c1ccc(Cl)cc1)[C@@H]1CC1(F)F [Example 23, 7-((2S,5R)-4-((R)-(4-chlorophenyl)((S)-2,2-difluorocyclopropyl)methyl)-5-ethyl-2-methylpiperazin-1-yl)-4-methyl-3-(((R)-tetrahydrofuran-2-yl)methyl)-3,4-dihydro-5H-[1,2,3]triazolo[4,5-d]pyrimidin-5-one] | ≤ 10 | ≤ 10
14 | CC[C@@H]1CN(c2nc(=O)n(C)c3c2nc(C)n3C[C@@H]2CCCO2)[C@@H](C)CN1[C@H](CC)c1ccc(Cl)cc1 [Example 25, 6-((2S,5R)-4-((R)-1-(4-chlorophenyl)propyl)-5-ethyl-2-methylpiperazin-1-yl)-3,8-dimethyl-9-(((S)-tetrahydrofuran-2-yl)methyl)-3,9-dihydro-2H-purin-2-one] | ≤ 10 | ≤ 10
15 | CC[C@@H]1CN(c2nc(=O)n(C)c3c2nc(C)n3C[C@@H]2CCCO2)[C@@H](C)CN1[C@@H](CC)c1ccc(Cl)cc1 [Example 24, 6-((2S,5R)-4-((S)-1-(4-Chlorophenyl)propyl)-5-ethyl-2-methylpiperazin-1-yl)-3,8-dimethyl-9-(((S)-tetrahydrofuran-2-yl)methyl)-3,9-dihydro-2H-purin-2-one] | ≤ 10 | ≤ 10
16 | C[C@@H]1CN(c2nc(=O)n(C)c3c2ncn3C[C@@H]2CCCO2)[C@@H](C)CN1C(c1ccc(F)cc1)c1ccc(F)cc1 [Example 10, 6-((2S,5R)-4-(Bis(4-fluorophenyl)methyl)-2,5-dimethylpiperazin-1-yl)-3-methyl-9-(((S)-tetrahydrofuran-2-yl)methyl)-3,9-dihydro-2H-purin-2-one] | ≤ 10 | ≤ 10
17 | C[C@@H]1CN(c2nc(=O)n(C)c3c2nnn3C[C@@H]2CCCO2)[C@@H](C)CN1C(c1ccc(C(F)(F)F)cn1)c1ccc(C(F)(F)F)cn1 [Example 32, 7-((2S,5R)-4-(Bis(5-(trifluoromethyl)pyridin-2-yl)methyl)-2,5-dimethylpiperazin-1-yl)-4-methyl-3-(((S)-tetrahydrofuran-2-yl)methyl)-3,4-dihydro-5H-[1,2,3]triazolo[4,5-d]pyrimidin-5-one] | ≤ 10 | ≤ 10
18 | Cc1nc2c(N3C[C@@H](C)N([C@H](c4ccc5ccc(C(F)(F)F)cc5n4)C(C)C)C[C@@H]3C)nc(=O)n(C)c2n1C[C@@H]1CCCO1 [Example 50, 6-((2S,5R)-2,5-dimethyl-4-((S)-2-methyl-1-(7-(trifluoromethyl)quinolin-2-yl)propyl)piperazin-1-yl)-3,8-dimethyl-9-(((S)-tetrahydrofuran-2-yl)methyl)-3,9-dihydro-2H-purin-2-one] | ≤ 10 | ≤ 10
19 | C[C@@H]1CN(c2nc(=O)n(C)c3c2ncn3CC2(O)CCCC2)[C@@H](C)CN1C(c1ccc(Cl)cc1)C1CC(F)(F)C1 (single isomer, unassigned) [Example 66] | ≤ 10 | ≤ 10
20 | CC[C@@H]1CN(c2nc(=O)n(C)c3c2nc(C)n3C[C@H]2OCC[C@@H]2O)[C@@H](C)CN1C(c1ccc(C(F)(F)F)cc1)C1CC(F)(F)C1 (single isomer, unassigned) [Example 68] | ≤ 10 | ≤ 10
21 | CC[C@@H]1CN(c2nc(=O)n(C)c3c2nc(C)n3C[C@@H]2CCCO2)[C@@H](C)CN1[C@@H](C)c1ccc(C(F)(F)F)cc1 [Example 61, 6-((2S,5R)-5-Ethyl-2-methyl-4-((S)-1-(4-(trifluoromethyl)phenyl)ethyl)piperazin-1-yl)-3,8-dimethyl-9-(((S)-tetrahydrofuran-2-yl)methyl)-3,9-dihydro-2H-purin-2-one] | ≤ 10 | ≤ 10
